Experimental findings from patent publication US20260345798A1, “COMPOUNDS AND METHODS OF USE THEREOF” (Virginia Commonwealth University, priority 2023, published 2026) are described below.

Residues, ends and D or L forms follow the SMILES beside them.

In experiment [1] the test system is MMP-2 and MMP-9. As to the kind of experiment: MMP-2 and MMP-9 mRNA by real time qPCR, human melanoma cells. It is filed as cell-based. The following applies: FIG. 5A. The source says:
FIG. 5A is a series of histograms showing the MMP-2 and MMP-9 mRNA transcriptional activity in established human melanoma cells (A-375, C8161.9, and MeWo cells) and patient-derived early passage human melanoma cells (TPF-19-219, TPF-19-235, and TPF-16-238 cells) treated with IVMT-Rx-3 at varying doses, as determined by qPCR. *: Statistical significance (p<0.05).
Total cellular RNA was extracted using an RNAeasy kit (Qiagen, Germany) as described previously (8,9). All Taqman probes used in this study were obtained from Applied Biosystems (Applied Biosystems, Foster City, CA). Real time PCR was performed using an ABI ViiA7 fast real-time PCR system (Applied Biosystems, Foster City, CA).
A general note: Real-time PCR tracks product formation cycle by cycle.

Experiment [2] deals with human melanoma cells (established and early passage patient-derived). The experiment in a line: Proliferation / colony formation of human melanoma cells. In kind it is cell-based. The following applies: 10 to 50 μM. The source says: FIG. 2C is a series of images showing colony formation assays of established human melanoma and patient-derived early passage human melanoma cells treated with IVMT-Rx-3.
FIG. 2D is a series of histograms showing the number of colonies/plate in the colony formation assays described in FIG. 2C. NS: Not statistically significant; Statistically significant p<0.05.
FIG. 2E is a series of histograms showing the number of colonies/plate in colony formation assays of patient-derived early passage human melanoma cells treated with IVMT-Rx-3. NS: Not statistically significant; Statistically significant p<0.05.
The effect of IVMT-Rx-3 on primary normal human epidermal melanocyte cell growth and survival was determined after short term (24 hr., growth assays) (FIG. 2A) and long-term exposure (3-week, clonal assays) (FIG. 2B).

The test system of experiment [3] is MMP-2 and MMP-9. The experiment in a line: Gelatin zymography of conditioned media. The following applies: A-375 and C8161.9 cells, 10, 25, 50 μM, 24 hrs. It is filed as cell-based, human. Here is the method: FIG. 5B is images of zymography assays of MMP-2 and MMP-9 activity in A-375, C8161.9 cells treated with IVMT-Rx-3 at varying doses, and histograms showing the calculated intensity from the zymography assays. *: Statistical significance (p<0.05).
Tumor cells were treated with different doses of IVMT-Rx-3 (10, 25, and 50 μM) for 24 hrs. The cells were then cultured in serum-free medium overnight. Conditioned media (serum free media) collected on the next day was quantified and equal amounts of protein were run in a 7.5% SDS-polyacrylamide gel electrophoresis containing 1.5 mg/mL gelatin. The gels were washed vigorously with shaking 3×in 2.5% Triton X-100 solution to remove the SDS. The gel was then placed in the developing buffer [50 mM/L Tris-HCl (pH 7.5), 0.05% NaN3, 5 mM/L CaCl2), and 1 μM/L ZnCl2] 37 °C overnight. Lastly, the gels were stained with Amido black in 10% acetic acid followed by de-staining for 1 hr. MMP activities as observed through gelatinolysis were measured as clear zones of white strips against a blue background (21).

Experiment [4] has as its target PDZ tandem protein Harmonin (Homo sapiens, UniProt Q9Y6N9). The experiment in a line: Binding to other PDZ domains: Harmonin. The following applies: 36% identity to PDZ2 and 31% to PDZ1 of MDA-9/Syntenin.
Another experiment has as its system NF-κB. As to the kind of experiment: NF-κB (p65) transcription factor assay. In kind it is cell-based, human. The following applies: A-375 and C8161.9 melanoma cells. As for the experimental part:
FIG. 4C is a histogram showing the NF-κB transcriptional activity of A-375 melanoma cells treated with the indicated doses of IVMT-Rx-3. *: Statistical significance (p<0.05).
FIG. 4D is a histogram showing the NF-κB transcriptional activity of C8161.9 melanoma cells treated with the indicated doses of IVMT-Rx-3. *: Statistical significance (p<0.05).
NF-κB transcription factor assay kits were obtained from Cayman Chemical (Ann Arbor, MI, USA) (Cat #10007889). Nuclear extracts were prepared from cells using the Nuclear and Cytoplasmic Extraction kit (Thermo Fisher Scientific, USA). The samples were then added to pretreated wells for 1 hr. after which they were washed with a wash buffer provided in the kit. The NF-κB antibody was then added with a 1 hr. incubation and after washing the antibody, HRP-conjugated secondary antibody was added for 1 hr. Lastly, a developing solution followed by a stop solution was added. The wells were analyzed with a microplate reader for absorbance at 450 nm.

Chain of PDZ tandem protein Harmonin (Q9Y6N9 whole entry, the tested form may be a part): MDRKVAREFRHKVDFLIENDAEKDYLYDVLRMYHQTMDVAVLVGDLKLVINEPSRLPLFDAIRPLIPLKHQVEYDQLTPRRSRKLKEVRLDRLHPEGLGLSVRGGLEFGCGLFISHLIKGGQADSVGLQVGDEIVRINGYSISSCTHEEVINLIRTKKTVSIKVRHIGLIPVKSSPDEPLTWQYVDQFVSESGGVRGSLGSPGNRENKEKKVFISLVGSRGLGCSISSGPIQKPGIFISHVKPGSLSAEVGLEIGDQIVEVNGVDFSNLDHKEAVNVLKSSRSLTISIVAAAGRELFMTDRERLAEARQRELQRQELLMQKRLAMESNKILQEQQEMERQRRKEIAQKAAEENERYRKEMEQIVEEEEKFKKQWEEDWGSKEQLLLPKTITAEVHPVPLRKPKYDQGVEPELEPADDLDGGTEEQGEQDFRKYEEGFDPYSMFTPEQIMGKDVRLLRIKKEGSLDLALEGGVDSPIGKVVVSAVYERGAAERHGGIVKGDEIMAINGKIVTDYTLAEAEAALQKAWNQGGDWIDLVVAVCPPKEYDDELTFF

On to `Cc1cc(NC(=O)c2nc3[nH]c4c(c(=O)n3n2)CCC4)c(C)cc1NC(=O)CCOCCC(=O)N[C@H](C(=O)N[C@@H](CC(N)=O)C(=O)N[C@@H](CCC(=O)O)C(=O)N[C@@H](Cc1ccc(O)cc1)C(=O)N[C@@H](Cc1ccc(O)cc1)C(=O)N[C@H](C(=O)O)C(C)C)[C@@H](C)O` [IVMT-Rx-3] (HELM PEPTIDE1{[Cc1cc(NC(=O)c2nc3[nH]c4c(c(=O)n3n2)CCC4)c(C)cc1NC(=O)CCOCCC(=O)[*:2]].T.N.E.Y.Y.V}$$$$V2.0), for which the “MMP-2 and MMP-9 mRNA expression (transcriptional level)” value in the experiment with MMP-2 and MMP-9 [1] is on record as “down regulation”. In experiment [2], the “inhibition of proliferation or long-term survival” value is “did not inhibit proliferation or long-term survival”. For the same compound, the “MMP activity (zymography)” value in the experiment on MMP-2 and MMP-9 [3] is listed as “lower activity in treated cells”. The “binding to Harmonin” value in experiment [4] was “did not bind appreciably”. Besides, in the experiment with NF-κB, the “transcriptional activity of NF-κB” value is reported as “suppressed the transcriptional activity of NF-κB in a dose-dependent manner”.
